Among the test systems are HCT-15; U-251; OVCAR-4; Malme-3M; K562; SK-MEL-5; SF-268; SNB-19; CAKI-1; SNB-75; NCI-H226; SF-539; SW-620; OVCAR-5; HOP-62; A549; SK-MEL-2; RPMI-8226; UACC-257; NCI-H460.
Holding throughout (experiment): inhibition of tumour cell growth, NCI panel, 48 h

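Where inhibition never reached the appropriate level, the endpoint shown equals the highest concentration tested. Otherwise, values were interpolated linearly from a five-concentration, 48-hour dose response in 96-well plates. GI50 = concentration required for 50% inhibition of growth.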 The source made the active and inactive calls. Cut-off read from the data, not from the text of the source: active = GI50 up to about 1.1 µM and inactive = higher.

For `O=c1[nH]c(=O)n(C2OC(CO)C(O)C(O)C2O)cc1F` (stereo not given), the GI50 was more than 100 µM in the experiment with HCT-15; > 100 µM (inactive) with U-251; > 100 µM (inactive) in the experiment on OVCAR-4; > 100 µM (inactive) in the experiment on Malme-3M; > 100 µM (inactive) with K562; > 100 µM (inactive) in the experiment with SK-MEL-5. Also, the GI50 is > 100 µM (inactive) with SF-268; > 100 µM (inactive) in the experiment on SNB-19; > 100 µM (inactive) in the experiment on CAKI-1; > 88.5 µM (inactive) in the experiment with SNB-75; > 100 µM (inactive) in the experiment on NCI-H226; > 100 µM (inactive) in the experiment on SF-539. The GI50 in the experiment on SW-620, with OVCAR-5, with HOP-62, in the experiment on A549, in the experiment on SK-MEL-2 and in the experiment on RPMI-8226 was > 100 µM (inactive) throughout. In addition, the GI50 in the experiment with UACC-257 and in the experiment on NCI-H460 was > 100 µM (inactive) in each case.
Take `CN1C2CCC1CC(CC(=O)NC(c1ccc(F)cc1)c1ccc(F)cc1)C2` (stereo not given): the GI50 in the experiment on HCT-15 was more than 100 µM; in the experiment with U-251 it was > 100 µM (inactive); with OVCAR-4 it was > 100 µM (inactive); in the experiment on Malme-3M, 27.5 µM (inactive); in the experiment with K562, 37.7 µM (inactive); in the experiment on SK-MEL-5 it was 20.8 µM (inactive). Also, the GI50 is 98.4 µM (inactive) in the experiment on SF-268; > 100 µM (inactive) in the experiment with SNB-19; > 100 µM (inactive) with CAKI-1; > 100 µM (inactive) in the experiment on SNB-75; > 100 µM (inactive) in the experiment with NCI-H226; 70 µM (inactive) in the experiment on SF-539. The GI50 with SW-620 was > 100 µM (inactive); in the experiment with OVCAR-5, > 100 µM (inactive); in the experiment with HOP-62, > 100 µM (inactive); with A549, > 100 µM (inactive); in the experiment on SK-MEL-2, 22.5 µM (inactive); with RPMI-8226 it was 47 µM (inactive). Also, the results for the GI50 in the experiment on UACC-257 and in the experiment with NCI-H460 were 20 µM (inactive) and > 100 µM (inactive), respectively.
With `Cc1ccccc1C(=O)c1cc(O)ccc1O`, the GI50 in the experiment on HCT-15 is 50.1 µM; in the experiment on U-251, 50.7 µM (inactive); with OVCAR-4 it was > 100 µM (inactive); with Malme-3M, > 100 µM (inactive); in the experiment with K562, 35 µM (inactive); with SK-MEL-5, > 100 µM (inactive). Also, the GI50 in the experiment on SF-268 was > 100 µM (inactive); in the experiment with SNB-19, > 100 µM (inactive); with CAKI-1, > 100 µM (inactive); with SNB-75, 76.2 µM (inactive); in the experiment on NCI-H226 it was > 100 µM (inactive); in the experiment with SF-539, > 100 µM (inactive). Moreover, the GI50 in the experiment with SW-620 was 37.1 µM (inactive); in the experiment with OVCAR-5 it was > 100 µM (inactive); with HOP-62, > 100 µM (inactive); with A549, > 100 µM (inactive); with SK-MEL-2, 34.6 µM (inactive); in the experiment with RPMI-8226, > 100 µM (inactive). Further, the GI50 was > 100 µM (inactive) in the experiment on UACC-257 and 85.9 µM (inactive) in the experiment with NCI-H460.
Turning to `COc1ccc2nc3ccc(OC)cc3c([S+]([O-])Cc3ccc([N+](=O)[O-])cc3)c2c1` (stereo not given), the GI50 was 3.19 µM in the experiment with HCT-15; 10.9 µM (inactive) in the experiment with U-251; 9.51 µM (inactive) in the experiment with OVCAR-4; 2.37 µM (inactive) with Malme-3M; 3.56 µM (inactive) with K562; 16.7 µM (inactive) in the experiment on SK-MEL-5. Also, the GI50 with SF-268 was 22.1 µM (inactive); in the experiment with SNB-19, 21.3 µM (inactive); in the experiment on CAKI-1 it was 15.3 µM (inactive); in the experiment on SNB-75, 19.3 µM (inactive); in the experiment with NCI-H226, 22.9 µM (inactive); in the experiment with SF-539 it was 2.81 µM (inactive). Further, the GI50 was 2.18 µM (inactive) in the experiment with SW-620; 12.9 µM (inactive) in the experiment on OVCAR-5; 16.1 µM (inactive) in the experiment on HOP-62; 25.8 µM (inactive) in the experiment on A549; 17.9 µM (inactive) in the experiment on SK-MEL-2; 2.61 µM (inactive) with RPMI-8226. For the same compound, the figures for the GI50 in the experiment with UACC-257 and with NCI-H460 were 3.9 µM (inactive) and 23.3 µM (inactive), respectively.
Turning to `CC1CCCC(C(O)CC2CC(=O)NC(=O)C2)C1O` (stereo not given), the GI50 with HCT-15 was more than 100 µM; in the experiment with U-251 it was > 100 µM (inactive); in the experiment with OVCAR-4, > 100 µM (inactive); with Malme-3M it was > 100 µM (inactive); with K562, > 100 µM (inactive); with SK-MEL-5 it was > 100 µM (inactive). The GI50 in the experiment on SF-268, with SNB-19, in the experiment on CAKI-1, in the experiment with SNB-75, with NCI-H226 and in the experiment on SF-539 was > 100 µM (inactive) each time. Further, the GI50 in the experiment with SW-620, with OVCAR-5, in the experiment with HOP-62, in the experiment on A549, in the experiment on SK-MEL-2 and with RPMI-8226 was > 100 µM (inactive) throughout. Also, the GI50 in the experiment with UACC-257 and in the experiment on NCI-H460 was > 100 µM (inactive) in each case.
`CC1=Nc2c(O)nc(S)nc2NC(c2ccc(Cl)c(Cl)c2)C1` (stereo not given): the GI50 with HCT-15 is 33.7 µM; in the experiment with U-251 it was 17.3 µM (inactive); with OVCAR-4, 25.5 µM (inactive); with Malme-3M, > 89.7 µM (inactive); with K562 it was > 100 µM (inactive); in the experiment with SK-MEL-5, 23.6 µM (inactive). For the same compound, the GI50 with SF-268 is 32.2 µM (inactive); with SNB-19, > 45 µM (inactive); in the experiment with CAKI-1 it was 30.3 µM (inactive); in the experiment with SNB-75, 80.9 µM (inactive); in the experiment on NCI-H226 it was 22.6 µM (inactive); with SF-539, 21.1 µM (inactive). For the same compound, the GI50 in the experiment with SW-620 was 23.5 µM (inactive); with OVCAR-5 it was > 100 µM (inactive); in the experiment on HOP-62, 46.3 µM (inactive); with A549 it was 21.1 µM (inactive); in the experiment with SK-MEL-2, > 100 µM (inactive); in the experiment with RPMI-8226 it was > 100 µM (inactive). Further, the GI50 is 21 µM (inactive) in the experiment on UACC-257 and 67.8 µM (inactive) with NCI-H460.
Take `COc1ccc(/N=N/c2ccc3oc(=O)c(C(=O)Nc4ccc(OC)cc4)cc3c2)cc1`: the GI50 in the experiment with HCT-15 is 6.79 µM; with U-251 it was 13.4 µM (inactive); in the experiment with OVCAR-4 it was 13.4 µM (inactive); in the experiment with Malme-3M, 18.6 µM (inactive); with K562, 18.1 µM (inactive); in the experiment with SK-MEL-5, 14.9 µM (inactive). Also, the GI50 with SF-268 is 9.02 µM (inactive); in the experiment with SNB-19, 22.5 µM (inactive); in the experiment with CAKI-1, 25.6 µM (inactive); in the experiment on SNB-75 it was 16.2 µM (inactive); in the experiment on NCI-H226, 13.1 µM (inactive); with SF-539, 6.95 µM (inactive). The GI50 in the experiment with SW-620 is 18.2 µM (inactive); in the experiment with OVCAR-5 it was 17.8 µM (inactive); in the experiment on HOP-62, 13.9 µM (inactive); with A549 it was 31.4 µM (inactive); in the experiment with SK-MEL-2, 14 µM (inactive); with RPMI-8226, 16.3 µM (inactive). Besides, the values for the GI50 in the experiment with UACC-257 and with NCI-H460 were 23.8 µM (inactive) and 20.4 µM (inactive), respectively.
Take `OCC(O)C(O)c1nn(-c2ccccc2)c2nc3cc(Cl)c(Cl)cc3nc12` (stereo not given): the GI50 with HCT-15 is 23.6 µM; with U-251, 29.1 µM (inactive); in the experiment on OVCAR-4, 24.7 µM (inactive); with Malme-3M, 17.2 µM (inactive); in the experiment on K562, 13.3 µM (inactive); with SK-MEL-5, 26.4 µM (inactive). In addition, the GI50 in the experiment on SF-268 is 21.4 µM (inactive); in the experiment with SNB-19, 48.2 µM (inactive); with CAKI-1, 16.6 µM (inactive); with SNB-75, 21.8 µM (inactive); in the experiment with NCI-H226 it was 21.4 µM (inactive); in the experiment on SF-539 it was 24 µM (inactive). For the same compound, the GI50 was 28.6 µM (inactive) in the experiment on SW-620; 14.8 µM (inactive) with OVCAR-5; 47.5 µM (inactive) in the experiment with HOP-62; 15.6 µM (inactive) in the experiment with A549; 22.3 µM (inactive) with SK-MEL-2; 8.93 µM (inactive) in the experiment with RPMI-8226. The figures for the GI50 in the experiment with UACC-257 and with NCI-H460 were 36.7 µM (inactive) and 27.7 µM (inactive), respectively.
As for `Sc1nnc(C23CC4CC(CC(C4)C2)C3)n1-c1ccc(Cl)cc1`, the GI50 with HCT-15 was 7.83 µM; in the experiment on U-251, 9.18 µM (inactive); with OVCAR-4, 16.9 µM (inactive); in the experiment with Malme-3M it was 13.5 µM (inactive); in the experiment on K562, 9.59 µM (inactive); in the experiment on SK-MEL-5, 3.3 µM (inactive). Besides, the GI50 was 11.6 µM (inactive) in the experiment with SF-268; 27.2 µM (inactive) with SNB-19; 1.96 µM (inactive) in the experiment on CAKI-1; 22.3 µM (inactive) with SNB-75; 23.3 µM (inactive) with NCI-H226; 22.7 µM (inactive) with SF-539. Also, the GI50 in the experiment with SW-620 was 16.1 µM (inactive); with OVCAR-5 it was 35.4 µM (inactive); with HOP-62, 13 µM (inactive); with A549, 8.34 µM (inactive); with SK-MEL-2 it was 10.9 µM (inactive); with RPMI-8226, 8.89 µM (inactive). Moreover, the values for the GI50 with UACC-257 and with NCI-H460 were 22.5 µM (inactive) and 5.69 µM (inactive), respectively.
As to `[O-][n+]1ccc(NO)c2ccccc21`, the GI50 is 1.75 µM with HCT-15; 0.658 µM (active) in the experiment with U-251; 1.9 µM (inactive) with OVCAR-4; 6.5 µM (inactive) in the experiment on Malme-3M; 2 µM (inactive) with K562; 1.25 µM (inactive) in the experiment on SK-MEL-5. The GI50 was 0.565 µM (active) with SF-268; 2.34 µM (inactive) with SNB-19; 1.16 µM (inactive) in the experiment on CAKI-1; 0.516 µM (active) in the experiment on SNB-75; 1.87 µM (inactive) in the experiment on NCI-H226; 0.679 µM (active) in the experiment with SF-539. The GI50 in the experiment with SW-620 was 1.56 µM (inactive); in the experiment with OVCAR-5 it was 3.73 µM (inactive); in the experiment on HOP-62, 1.79 µM (inactive); in the experiment on A549, 1.6 µM (inactive); with SK-MEL-2, 1.77 µM (inactive); in the experiment on RPMI-8226, 0.297 µM (active). In addition, the GI50 in the experiment on UACC-257 is 7.36 µM (inactive); with NCI-H460, 0.295 µM (active).

(Values after ChEMBL document CHEMBL1201862, “PubChem BioAssay data set” (2004).)
